Assay results reported in the NIST ThermoML archive (doi:10.1016/j.fluid.2005.07.009).

Columns and labels:
[1] = molar heat capacity at constant pressure; conditions: 101.33 kPa, Small sample (50 mg) DSC
[2] = Crystal; DTA
[3] = Molar enthalpy of transition or fusion; conditions: Crystal; DSC

CCCCCCCCCCCO [1-undecanol]
[1]
Conditions	molar heat capacity at constant pressure [J/K/mol]
208.41 K, Crystal	193.11
209.57 K, Crystal	193.3
210.11 K, Crystal	194.69
211.02 K, Crystal	194.71
212.12 K, Crystal	196.33
213.87 K, Crystal	198.62
214.48 K, Crystal	201.14
215.51 K, Crystal	201.98
216.84 K, Crystal	205.69
217.02 K, Crystal	206.89
218.35 K, Crystal	208.79
219.08 K, Crystal	211.05
220.29 K, Crystal	213.58
221.74 K, Crystal	215.54
222.1 K, Crystal	216.27
223.31 K, Crystal	218.06
224.39 K, Crystal	219.4
225.72 K, Crystal	221.14
226.26 K, Crystal	221.42
227.04 K, Crystal	223.37
228.49 K, Crystal	225.69
229.28 K, Crystal	228.09
230 K, Crystal	228.5
231.02 K, Crystal	229.81
232.16 K, Crystal	232.96
233.13 K, Crystal	234.38
234.75 K, Crystal	235.74
235.83 K, Crystal	237.03
236.92 K, Crystal	238.89
237.34 K, Crystal	238.93
238.6 K, Crystal	239.94
239.8 K, Crystal	239.99
241.66 K, Crystal	243.63
243.34 K, Crystal	245.99
244.18 K, Crystal	246.89
246.11 K, Crystal	250.54
297.08 K, Liquid	405.86
298.17 K, Liquid	407.32
299.23 K, Liquid	408.96
300.25 K, Liquid	409.93
301.38 K, Liquid	411.68
302.21 K, Liquid	412.61
303.18 K, Liquid	413.77
304.11 K, Liquid	414.87
305.18 K, Liquid	415.8
306.27 K, Liquid	417.37
307.49 K, Liquid	418.89
308.58 K, Liquid	419.76
309.32 K, Liquid	421.18
310.02 K, Liquid	422.07
311.09 K, Liquid	423.23
312.51 K, Liquid	425.11
313.48 K, Liquid	426.38
314.66 K, Liquid	427.93
315.71 K, Liquid	429.81
316.18 K, Liquid	430
318.29 K, Liquid	432.46
320.24 K, Liquid	435.26
321.15 K, Liquid	436.27
323.33 K, Liquid	439.56

Conditions	Molar enthalpy of transition or fusion [kJ/mol]	Triple point temperature [K]
[2]	–	289.63
[3]	30.6	–

CCCCCCCCCO [nonan-1-ol]
Conditions	Molar enthalpy of transition or fusion [kJ/mol]	Triple point temperature [K]
[2]	–	268.1
[3]	24.5	–

CCCCCCCCO [octan-1-ol]
Conditions	Triple point temperature [K]
[2]	258.03

CCCCCCCCCCN [1-decanamine]
[1]
Conditions	molar heat capacity at constant pressure [J/K/mol]
260.31 K, Crystal	259.31
260.64 K, Crystal	260.44
260.93 K, Crystal	261.21
261.39 K, Crystal	261.42
261.62 K, Crystal	262.06
261.99 K, Crystal	263.4
262.32 K, Crystal	263.89
262.67 K, Crystal	264.94
262.94 K, Crystal	265.77
263.34 K, Crystal	266.8
263.61 K, Crystal	266.97
263.92 K, Crystal	267.74
264.39 K, Crystal	269.3
264.62 K, Crystal	269.42
264.91 K, Crystal	270.38
265.33 K, Crystal	271.97
265.61 K, Crystal	272.3
265.95 K, Crystal	273.03
266.38 K, Crystal	274.58
266.67 K, Crystal	275.4
266.96 K, Crystal	275.97
267.36 K, Crystal	277.46
267.62 K, Crystal	278.39
267.94 K, Crystal	279.27
268.33 K, Crystal	280.36
268.66 K, Crystal	281.82
268.95 K, Crystal	282.79
269.32 K, Crystal	283.64
269.63 K, Crystal	284.29
270.21 K, Crystal	285.94
298.11 K, Liquid	372.55
299.64 K, Liquid	373.35
300.38 K, Liquid	373.78
301.27 K, Liquid	373.82
302.37 K, Liquid	374.25
303.41 K, Liquid	374.33
304.05 K, Liquid	374.34
305.25 K, Liquid	374.39
306.31 K, Liquid	374.86
307.28 K, Liquid	375.02
308.4 K, Liquid	375.08
309.24 K, Liquid	375.35
310.32 K, Liquid	375.6
311.09 K, Liquid	375.9
312.37 K, Liquid	376.23
313.36 K, Liquid	376.31
314.28 K, Liquid	376.34
315.23 K, Liquid	376.91
316.39 K, Liquid	377.46
317.53 K, Liquid	377.49
318.23 K, Liquid	377.55
319.33 K, Liquid	377.88
320.09 K, Liquid	377.93
321.19 K, Liquid	377.99
322.08 K, Liquid	378.21
323.45 K, Liquid	378.65
324.17 K, Liquid	379.09
325 K, Liquid	379.38
326.2 K, Liquid	379.69
327.09 K, Liquid	379.8
328.21 K, Liquid	379.88
329.22 K, Liquid	380.68
330.18 K, Liquid	380.93
331.23 K, Liquid	381.19
332.31 K, Liquid	381.58
333.26 K, Liquid	382.32

Conditions	Molar enthalpy of transition or fusion [kJ/mol]
[3]	42.7

CCCCCCN [1-hexanamine]
[1]
Conditions	molar heat capacity at constant pressure [J/K/mol]
205.12 K, Crystal	135.48
206.53 K, Crystal	137.42
207.27 K, Crystal	138.49
208.18 K, Crystal	140.02
209.16 K, Crystal	140.47
210.21 K, Crystal	141.21
211.81 K, Crystal	141.65
212.3 K, Crystal	141.8
213.41 K, Crystal	141.86
214.27 K, Crystal	141.99
215.45 K, Crystal	143.94
216.17 K, Crystal	144.89
217.45 K, Crystal	145.13
218.13 K, Crystal	145.21
219.48 K, Crystal	146.21
220.34 K, Crystal	147.15
221.19 K, Crystal	148.86
222.04 K, Crystal	149.71
223.38 K, Crystal	151.47
224.66 K, Crystal	152.29
225.39 K, Crystal	153.27
226.42 K, Crystal	155.08
228.17 K, Crystal	156.72
230.11 K, Crystal	160.13
267.26 K, Liquid	248.4
268.63 K, Liquid	248.52
269.54 K, Liquid	248.61
270.16 K, Liquid	248.66
271.24 K, Liquid	248.67
272.69 K, Liquid	248.95
273.56 K, Liquid	249.01
274.18 K, Liquid	249.09
275.88 K, Liquid	249.12
276.66 K, Liquid	249.26
277.16 K, Liquid	249.31
278.69 K, Liquid	249.34
279.94 K, Liquid	249.36
280.47 K, Liquid	249.45
281.8 K, Liquid	249.47
282.34 K, Liquid	249.48
283.41 K, Liquid	249.51
284.45 K, Liquid	249.55
285.4 K, Liquid	249.79
286.56 K, Liquid	249.85
287.39 K, Liquid	249.86
288.43 K, Liquid	250.09
289.09 K, Liquid	250.12
290.21 K, Liquid	250.23
292.36 K, Liquid	250.46
293.15 K, Liquid	250.5
295.59 K, Liquid	250.98

Conditions	Molar enthalpy of transition or fusion [kJ/mol]
[3]	25

CCCCCCCCN [1-octanamine]
[1]
Conditions	molar heat capacity at constant pressure [J/K/mol]
214.08 K, Crystal	167.97
215.55 K, Crystal	170.58
217.65 K, Crystal	171.84
218.54 K, Crystal	174.15
220.18 K, Crystal	175.59
221.56 K, Crystal	175.94
223.07 K, Crystal	176.5
224.56 K, Crystal	177.92
226.18 K, Crystal	179.15
227.54 K, Crystal	180.21
229.16 K, Crystal	180.94
230.51 K, Crystal	183.42
232.12 K, Crystal	185.1
233.53 K, Crystal	186.36
235.26 K, Crystal	187
236.54 K, Crystal	188.74
238.13 K, Crystal	189.62
239.53 K, Crystal	191.53
241.11 K, Crystal	193.65
242.56 K, Crystal	195.03
244.04 K, Crystal	196.53
245.1 K, Crystal	197.38
246.25 K, Crystal	197.77
247.23 K, Crystal	198.38
248.63 K, Crystal	203.31
249.05 K, Crystal	203.59
249.65 K, Crystal	203.61
251.8 K, Crystal	204.04
252.23 K, Crystal	204.62
253.02 K, Crystal	206.62
295.09 K, Liquid	304.31
295.53 K, Liquid	304.33
296.13 K, Liquid	304.35
296.41 K, Liquid	304.94
297.1 K, Liquid	304.99
297.32 K, Liquid	305.36
298.16 K, Liquid	305.42
298.58 K, Liquid	305.98
299.02 K, Liquid	306.08
299.35 K, Liquid	306.45
300.13 K, Liquid	306.53
300.53 K, Liquid	306.69
301.18 K, Liquid	307.19
301.52 K, Liquid	307.31
302.16 K, Liquid	307.33
302.56 K, Liquid	307.36
303.28 K, Liquid	307.81
303.51 K, Liquid	308.08
304.44 K, Liquid	308.1
304.71 K, Liquid	308.11
304.99 K, Liquid	308.47
305.64 K, Liquid	308.51
306.11 K, Liquid	308.52
306.59 K, Liquid	308.6
307.38 K, Liquid	308.63
307.5 K, Liquid	308.83
308.05 K, Liquid	308.92
308.54 K, Liquid	309.05
309.16 K, Liquid	309.12
309.24 K, Liquid	309.24
310.24 K, Liquid	309.3
310.53 K, Liquid	309.35
311.07 K, Liquid	309.39
311.51 K, Liquid	310.16
312.64 K, Liquid	310.21
313.22 K, Liquid	310.76

Conditions	Molar enthalpy of transition or fusion [kJ/mol]
[3]	34.7
